Source: patent US20250295679A1, “Compositions and Dosage Forms for Treatment of HPV Infection and HPV-Induced Neoplasia” (priority 2022, published 2025)

Assays:
[1] = Ex vivo permeation and penetration across porcine vaginal tissue (Franz diffusion cell, IVPT); assay type: in vitro ADME; conditions: porcine vaginal tissue, FIG. 116; 0.1% Compound II gel; 1% and 3% ABI-1968 formulations
From the text: FIG. 116 is an in vitro tissue permeation test in vaginal tissue comparing Compound II to ABI-1968. […] Bars B and C show the tissue penetration of a 0.1% Compound II gel in human cervical tissue. […] This may be a contributing factor to the performance of ABI-1968 in clinical studies. […] This is described in Example 41.
Freshly harvested porcine vaginal tissue was procured from local slaughterhouse in an ice box. The vaginal tissue was cut open to expose the mucosal surface and tissue was cleaned by gentle flow of PBS pH 7.4. The porcine vaginal tissue was cut into circular portions (approximately 2 cm^2) with help of a […] punch.
The circular portion of tissue was sandwiched between two chambers of a Franz diffusion cell with an active diffusion area of 1 cm^2, and the mucosal layer was exposed to the donor chambers. The resistance across porcine vaginal tissue was measured using a wave form generator to ensure the integrity of the tissue segment used for the permeation study. Porcine vaginal tissue with resistance of ≥3 KΩ·cm^2 was used for study. The receiver chamber was filled with 8 ml of 5% solutol PBS 7.4 pH, which was stirred at 600 rpm with a 3 mm magnetic stir bar and the temperature was maintained at 37° C. with a circulating water bath.
The ˜200 mg of gel was filled into tared 1 mL syringe and gel was dispensed to donor chamber. The gel was spread on to mucosal surface with pre weighed applicator. After loading and spreading of the gel onto surface of mucosal surface, the weight of 1 mL syringe and applicator was noted to determine the exact amount of gel loaded into donor chamber.
Time course (2 h, 4 h and 8 h) porcine vaginal permeation studies were performed. After loading gel, 500 μL samples were withdrawn from the receiver compartment at different time intervals and each time an equal volume of fresh receiver media was used to replace withdrawn samples. The sample withdrawn at each time interval were stored immediately in −20° C. until analysis. After 2, 4 and 8 h, the formulation was removed from the donor chamber with help of syringe and cleaned with cotton swab. The tissue was removed and washed gently with wash solution (50% methanol in water) 5 times and alternatively cleaning with cotton swab.
An 8 mm punch of active diffusion area of washed porcine vaginal tissue was removed, weighed and transferred into a tube. This tube was immediately placed into dry ice for ˜15 min. After specified time, tissue was removed and placed in precooled dish. The tissue was minced into smaller pieces on a dish with a precooled surgical blade. The minced tissue was transferred to sample tubes and dish was rinsed with 1 ml of 5% solutol in PBS 7.4 pH and transferred to same tissue sample tube. These tubes were stored in −70° C. until analysis. […]

[2] = Bulk (accelerated) stability, one week, HPLC and XRPD; conditions: for Bulk (HPLC) Purity / Bulk Color: 1 week
Description: Bulk stability: Accelerated stability experiments were conducted at 25° C./92% RH and 40° C./75% RH in an open container, 60° C. in a tight container for one week.
Samples were characterized by XRPD and HPLC and inspected for color change.
Accelerated stability experiments were conducted at 25° C./92% RH in an open container, at 40° C./75% RH in an open container, and at 60° C. in a tight container for one week.

[3] = Hygroscopicity by DVS at 25° C.; assay type: physicochemical; conditions: for XRPD after DVS test: 25° C.
Description: Hygroscopicity was investigated by DVS at 25° C., using the following method: • Method: 40-0-95-0-40% RH, dm/dt=0.002

[4] = Solubility in buffers, water and simulated vaginal fluid at 37° C.; conditions: 37° C., 2 h
Description: About 4 mg of Compound I Pattern 1 was added into 2 mL of buffer solution.
(§1) Solubility was tested in five media, pH 3.0 citrate buffer, pH 4.5 acetate buffer, pH 6.8 phosphate buffer, water, simulated vaginal fluid (pH 4.2) at 37° C. for 0.5 h and 2 h.
The salt amount used is equivalent to 10 mg anhydrous free base. […] The obtained clear solutions were analyzed by pH meter for pH, and solubility was determined by observation.
as §1

[5] = Polymorph screening by equilibration in solvents; assay type: physicochemical
[6] = BS1: solid state, 25° C./92% RH, open container
[7] = BS2: solid state, 40° C./75% RH, open container
[8] = BS3: solid state, 60° C., tight container

With CCOC(=O)[C@H](C)N[P@@](=O)(COCCn1cnc2c(OC)nc(N)nc21)OCc1ccccc1.O=C(O)/C=C/C(=O)O [Compound II] the “Tissue penetration” value [1] was “high tissue penetration”, the “Stability after exposure to the three conditions” value ([2]; 25° C./92% RH open, 40° C./75% RH open, 60° C. tight container, one week) was “good physical and chemical stability” and the “Bulk (HPLC) Purity” value [2, 6] was 99.5%. The “Bulk Color” value [2, 6] was “No change”, the “Bulk (HPLC) Purity” value [2, 7] was 99.4% and the “Bulk Color” value [2, 7] was “No change”. For the same molecule, the “Bulk (HPLC) Purity” value [2, 8] was 99.7%, the “Bulk Color” value [2, 8] was “No change” and the “HPLC purity, Initial” value ([2]; initial chemical purity before storage) was 99.7%. For the same molecule, the “Desorp. (%) Cycle 1” value ([3]; DVS 25° C., 0% RH) was 0.03%, the “Desorp. (%) Cycle 2” value ([3]; DVS 25° C., 0% RH) was 0.03% and the “Sorp. (%) Cycle 1” value ([3]; DVS 25° C., 0% RH) was 0.03%. For the same molecule, the “Sorp. (%) Cycle 2” value ([3]; DVS 25° C., 0% RH) was 0.03%, the “Desorp. (%) Cycle 1” value ([3]; DVS 25° C., 10% RH) was 0.05% and the “Desorp. (%) Cycle 2” value ([3]; DVS 25° C., 10% RH) was 0.05%. For the same molecule, the “Sorp. (%) Cycle 1” value ([3]; DVS 25° C., 10% RH) was 0.04%, the “Sorp. (%) Cycle 2” value ([3]; DVS 25° C., 10% RH) was 0.04% and the “Desorp. (%) Cycle 1” value ([3]; DVS 25° C., 20% RH) was 0.08%. The “Desorp. (%) Cycle 2” value ([3]; DVS 25° C., 20% RH) was 0.07%, the “Sorp. (%) Cycle 1” value ([3]; DVS 25° C., 20% RH) was 0.06% and the “Sorp. (%) Cycle 2” value ([3]; DVS 25° C., 20% RH) was 0.06%. The “Desorp. (%) Cycle 1” value ([3]; DVS 25° C., 30% RH) was 0.10%, the “Desorp. (%) Cycle 2” value ([3]; DVS 25° C., 30% RH) was 0.08% and the “Sorp. (%) Cycle 1” value ([3]; DVS 25° C., 30% RH) was 0.08%. The “Sorp. (%) Cycle 2” value ([3]; DVS 25° C., 30% RH) was 0.07%, the “Desorp. (%) Cycle 1” value ([3]; DVS 25° C., 40% RH) was 0.17% and the “Desorp. (%) Cycle 2” value ([3]; DVS 25° C., 40% RH) was 0.10%. The “Sorp. (%) Cycle 1” value ([3]; DVS 25° C., 40% RH) was 0.10%, the “Sorp. (%) Cycle 2” value ([3]; DVS 25° C., 40% RH) was 0.09% and the “Desorp. (%) Cycle 2” value ([3]; DVS 25° C., 50% RH) was 0.12%. For the same molecule, the “Sorp. (%) Cycle 1” value ([3]; DVS 25° C., 50% RH) was 0.12%, the “Desorp. (%) Cycle 2” value ([3]; DVS 25° C., 60% RH) was 0.14% and the “Sorp. (%) Cycle 1” value ([3]; DVS 25° C., 60% RH) was 0.13%. The “Desorp. (%) Cycle 2” value ([3]; DVS 25° C., 70% RH) was 0.18%, the “Sorp. (%) Cycle 1” value ([3]; DVS 25° C., 70% RH) was 0.16% and the “Desorp. (%) Cycle 2” value ([3]; DVS 25° C., 80% RH) was 0.21%. The “Sorp. (%) Cycle 1” value ([3]; DVS 25° C., 80% RH) was 0.19%, the “Desorp. (%) Cycle 2” value ([3]; DVS 25° C., 90% RH) was 0.24% and the “Sorp. (%) Cycle 1” value ([3]; DVS 25° C., 90% RH) was 0.23%. For the same molecule, the “Desorp. (%) Cycle 2” value ([3]; DVS 25° C., 95% RH) was 0.24%, the “Sorp. (%) Cycle 1” value ([3]; DVS 25° C., 95% RH) was 0.24% and the Hygroscopicity ([3]; DVS at 25° C., in words) was “slightly hygroscopic”. For the same molecule, the “XRPD after DVS test” value ([3]; after DVS 40-0-95-0-40% RH) was “No form change”, the “XRPD after DVS test” value ([3]; after humidity cycle 40-0-95-0-40% RH, listed as Compound II Pattern 1, monofumarate) was “No form change” and the “XRPD after DVS test” value ([3]; after humidity cycle 40-0-95-0-40% RH, monofumarate) was “does not change”. The Water uptake ([3]; up to / in 95% RH, DVS 25° C.) was “about 0.2%”, the “pH of solution at 2 hours” value ([4]; ES1: pH 3.0, 100 mM citrate buffer) was 2.85 and the “pH of solution at 2 hours” value ([4]; ES2: pH 4.5, 50 mM acetate buffer) was 4.2. For the same molecule, the “pH of solution at 2 hours” value ([4]; ES3: pH 6.8, 50 mM phosphate buffer) was 6.47, the “pH of solution at 2 hours” value ([4]; ES4: Water) was 2.87 and the “pH of solution at 2 hours” value ([4]; ES5: Simulated vaginal fluid (pH adjusted by 0.1N NaOH)) was 5.79. The “Crystal modification after 1 week equilibration at 25° C.” value (from here on “Crystal modification”) ([5]; PS1: IPA) was “Compound II Pattern 1”, the “Crystal modification” value ([5]; PS2: Heptanes) was “Compound II Pattern 1” and the “Crystal modification” value ([5]; PS3: Water) was “Compound II Pattern 1”. The “Crystal modification” value ([5]; PS4: ACN) was “Compound II Pattern 2”, the “Crystal modification” value ([5]; PS5: MEK) was “Compound II Pattern 3” and the “Crystal modification” value ([5]; PS6: Acetone) was “Compound II Pattern 1”. The “Crystal modification” value ([5]; PS7: IPA/heptanes (3/10, v/v)) was “Compound II Pattern 1”, the “Crystal modification” value ([5]; PS8: water/ACN (2.9/97.1, v/v)) was “Compound II Pattern 2” and the “Crystal modification” value ([5]; PS9: IPA/MTBE (1/3, v/v)) was “Compound II Pattern 1”. The “Crystal modification” value ([5]; PS10: EA/toluene (1/3, v/v)) was “Compound II Pattern 1” and the “Dissociation of the salt during equilibration experiments” value ([5]; equilibration in solvents, 1 week, 25° C.) was “no dissociation was observed”.
